We go through two compounds from patent US4329347A, “Cardiotonic and antithrombotic sulfur-containing derivatives of carbostyril” (Boehringer Ingelheim GmbH, priority 1978, dated 1982).

Molecules are shown by their SMILES. Where two headings read alike, the source gives them in different places. A value given as a limit tells only on which side of the number the result lay.

For data set [1], the system named is thrombocyte aggregation in platelet-rich plasma of healthy human donors. Nature of the data set: Thrombocyte aggregation inhibiting activity by the method of Born and Cross (platelet-rich plasma). Format: cell-based. The following applies: optical density. How it is done:
1. Determination of the thrombocyte aggregation inhibiting activity by the method of Born and Cross [J. Physiol. 170, 397 (1964)]:
The thrombocyte aggregation was measured in the platelet-rich plasma of healthy human donors. The decrease in optical density was measured and recorded photometrically after the addition of adenosine diphosphate or collagen. From the angle of inclination of the density curve, the rate of aggregation was estimated (Vmax). The optical density was taken as the point on the curve where the most light was transmitted (O.D.).
The EC50 values in the tables indicate the optical density.
Small doses of collagen were chosen, but sufficient to give irreversible aggregation. To provoke maximum aggregation, about 0.01 ml of the collagen solution was added to 1 ml of platelet-rich plasma. (Commercial collagen of Hormonchemie, Munich). The adenosine diphosphate (ADP) doses were chosen to give only the first phase of the BORN curve. The necessary amount of ADP was about 1×10^-6 mol/l. Commercial ADP of Boehringer Mannheim was used.
The substance dose which produced a 50% inhibition of the thrombozytes aggregation (EC50) was determined graphically.

For the next data set, the system named is conscious mice. Nature of the data set: Prolongation of the bleeding time (mouse tail). The format is in vivo. The settings on record: po, 10 mg/kg orally, after 1 hour, compared to control group, read-out: Prolongation of the bleeding time in % after one hour. On the procedure: The function of the thrombocytes can be determined by measuring the bleeding time. The normal bleeding time in human beings is in the range of 1 to 3 minutes and needs intact thrombozytes in a sufficient number. If the number of thrombocytes is normal and the bleeding time is prolonged, this signifies a disturbed function of the thrombocytes. This is found in some congenital defects of thrombocyte function (V. Willebrand's disease, for example). If, on the other hand it is the aim to prevent spontaneous aggregation of the thrombocytes and occlusion in the arterial system by antithrombotic drugs, the bleeding time should be prolonged as a consequence. Therefore, using antithrombotic substances, a prolongation of the bleeding time is expected. If the plasma coagulation system is not influenced by such a medicine, coagulation tests will give a normal result.
To measure the bleeding time, 10 mg/kg of the test compound is administered orally to conscious mice. After 1 hour, 0.5 mm of the tip of the mousetail is cut off and droplets of blood are gently removed with filter paper every 30 second. The number of drops of blood give a measure for the bleeding time (5 animals/experiment).
The numbers in the following table represent the prolongation in % compared to the control group.

The next data set relates to auricles (rat heart). Kind of data set: Positive inotropic activity on isolated rat auricles. The settings on record: 1×10^-5 gm/ml, 30° C., from the starting values, read-out: % Increase in Force of Contraction. Details: species or system rats. How it is done: Rats were anesthetized with ether and subsequently killed by a blow on the neck. After opening the thorax, the heart was removed and both auricles were separated. The auricles were put into an organ bath of 100 ml containing a tyrode solution at a temperature of 30° C. The tyrode solution was infused with carbogen (95% of O2 and 5% of CO2). The spontaneous contractions of the auricles were registered isometrically. The auricles were weighted with 1 gm. The compounds in question were tested on 4 auricles each at 1×10^-5 gm/ml. The alteration of the contraction force was registered in % from the starting values.

The test system of data set [2] is phosphodiesterase (PDE), supernatant of human blood platelets. Nature of the data set: PDE inhibition (3H-cAMP hydrolysis). The format is biochemical. The settings on record: human blood platelet PDE, 1 μmol/liter 3H-cAMP, pH 7.4, 15 minutes, 37° C. How it is done:
cAMP is hydrolysed to AMP by phosphodiesterase (PDE) from various sources, including blood platelets. This hydrolysis is inhibited by PDE inhibitors according to the concentration.
The phosphodiesterase used was the 10,000×g supernatant of human blood platelets which had been frozen with water and thawed out again.
An amount of 0.3 ml of a mixture which contained 0.1 mole/liter of trihydroxy-aminomethane (pH 7.4), 3 mmole/liter of magnesium chloride, 1 mmole/liter of AMP, 1 μmol/liter of ^3 H-cAMP (specific activity about 10 MBq/μmol), PDE as well as the substance to be tested and water for the control were incubated for 15 minutes at 37° C.
The incubation was stopped by the addition of 0.5 ml of zinc sulfate (0.266 mole/liter) and 0.5 ml of barium hydroxide (0.266 mole/liter), the precipitate was centrifuged and the activity remaining in the supernatant of the unreacted ^3 H-cAMP was determined. From a comparison of the substance preparations and the control preparations, the concentration for a 50% inhibiting activity (IC50) of the respective substance was calculated.

Data set [3] has as its system Platelet Thromboses in the Rat. Nature of the data set: Influence on platelet thromboses in the rat (electrical irritation of a vein). Format: in vivo. The following applies: male rats, five animals per dose, 20 minutes observation, vs. untreated group; dose not given. On the procedure:
Literature: H. Poliwoda, J. Lilli, G. Hagemann, D. Schyma: Z. ges. exp. Med., 145, 252 (1968)
Male rats (body weight between 70 and 90 grams) received an intraperitoneal Nembutal anesthesia (dose: 50 to 60 mg/kg). To avoid hypothermia, they were positioned on a heated test table (about 37° C.). The respiratory passage was held free by insertion of a tracheal cannula.
After a transverse abdominal incision was made, an intestinal loop was exposed and fixed, and a vein, with a diameter of about 300 μ was prepared. A monopolar platinum electrode embedded in glass and having a tip diameter of about 100μ was applied to the vein as an irritating cathode. The indifferent electrode was applied to the same vessel opposite the cathode. The irritation was provoked by 150 volts of direct current for a period of 100 milliseconds. After the irritation, the area of observation was continuously rinsed with warm (37° C.) physiological salt solution.
The formation and growth of the thrombosis was followed under a binocular microscope over a time period of 20 minutes. During the entire period of observation, the percentage of the vessel volume closed by the thrombosis was estimated at different time intervals.
Five animals per dose were used, and the results were averaged.
In the test compound experiments, the average size of the thrombosis in the treated animal group was compared with that of an untreated animal group. The result was given as "percentage reduction of the average thrombosis size." The following table contains the values obtained.

Data set [4] relates to Walker-256 carcinosarcoma cells. Nature of the data set: Effect on tumor cell embolism: mortality after injection of Walker-256 carcinosarcoma cells in mice. Format: in vivo. How it is done: (a) Mice having a body weight of about 25 grams received an injection in the jugular vein of a million Walker-256 carcinosarcoma cells. These tumor cells lead to a formation of thrombocyte clumps, which causes a fatal tumor cell embolism in a portion of the animals. Under the influence of the test compounds, the number of deceased animals can be reduced. Normally, about 65% of the control animals died within 10 minutes as a result of pulmonary embolism.

Data set [5] has as its system thrombocytes (number in the blood after tumor cell injection). Kind of data set: Effect on tumor cell embolism: thrombocyte decrease after intravenous tumor cell injection in rats. The format is in vivo. The following applies: control 70. The text has this:
(b) By virtue of the injection of tumor cells, a strong decrease in the number of thrombocytes in the blood was produced in the test animals (rats) as a consequence of thrombocyte and tumor cell thrombocyte aggregation. […] By administration of suitable substances, the extent of the thrombocyte decrease can be reduced as compared to that of the untreated control animals.

The nature of the next data set: Acute toxicity, oral. Format: in vivo. The following applies: mouse, in vivo; mice, single oral dose, 14 days observation; read-out: Acute Toxicity per os. On the procedure:
(§1) The acute toxicity of the test compounds was determined on groups of 10 mice each after oral administration of a single dose of 1,000 mg/kg (observation time: 14 days).

The test system of another data set is mice. Nature of the data set: Acute toxicity, oral. Format: in vivo. The following applies: single oral dose of 1,000 mg/kg, 14 days observation. On the procedure:
as §1

The mark [6] stands for this setting: ADP-induced (about 1×10^-6 mol/l), read-out: EC50 (50% inhibition of thrombocyte aggregation), ADP.
Where [7] appears, read: collagen-induced, read-out: EC50 (50% inhibition of thrombocyte aggregation), Collagen.

On to `O=c1ccc2cc(OCCCCS(=O)(=O)c3ccccn3)ccc2[nH]1` [T, 6-[4-(2-Pyridyl-sulfonyl)-butoxy]-carbostyril], for which the EC50 was determined as 6000 nM in data set [1] (setting [6]) and 100 nM in data set [1] (setting [7]). In addition, in the data set on conscious mice, the change in vivo at 10 mg/kg amounted to 5%. In addition, the activation at 10 µg/mL with auricles (rat heart) was 32%. The compound further returned an IC50 in [2] of 1000 nM. In addition, in data set [3], the “Percentage Reduction of the Average Thrombosis Size” value is reported as 29%. The “Percentage of Deceased Animals” value in [4] (2 mg/kg p.o.) came out at 23%; in data set [4] (6 mg/kg p.o.) it was 6.7%. In addition, the “% Reduction of the Number of Thrombocytes” value in data set [5] (dose 2 mg/kg) came to 29%; in [5] (dose 4 mg/kg), 15%; in data set [5] (dose 8 mg/kg), 1.1%. In addition, the LD50 at 336 h in “Acute toxicity, oral” was > 1000 mg/kg. Also, in the data set with mice, the “animals died (acute toxicity per os)” value is listed as 0 out of 10 animals.

Consider `O=C1CCc2cc(OCCCC[S+]([O-])c3ccc(Cl)c(Cl)c3)ccc2N1` (stereo not shown) [U, 6-[4-(3,4-Dichlorophenyl-sulfinyl)-butoxy]-3,4-dihydro-carbostyril], for which the results for the EC50 in data set [1] (setting [6]) and in data set [1] (setting [7]) were 15000 nM and 4000 nM, respectively. For the same compound, the change in vivo at 10 mg/kg in the data set on conscious mice is 33%. Moreover, it took 270 nM to reach half-maximal inhibition in data set [2] (IC50). The “Percentage Reduction of the Average Thrombosis Size” value in [3] is reported as 32%. For the same compound, the “Percentage of Deceased Animals” value is given as 40% in data set [4] (2 mg/kg p.o.) and 13% in data set [4] (6 mg/kg p.o.). Also, the “% Reduction of the Number of Thrombocytes” value amounted to 34% in [5] (dose 2 mg/kg), 20.8% in data set [5] (dose 6 mg/kg) and 1.1% in data set [5] (dose 18 mg/kg). For the same compound, in “Acute toxicity, oral”, the LD50 at 336 h is > 1000 mg/kg. In the data set on mice, the “animals died (acute toxicity per os)” value is 0 out of 10 animals.

The term EC50 denotes the concentration that produces a half-maximal response. One may read the IC50 as the concentration needed to halve the response being measured.
